In patent publication US20240315315A1, “COMPOSITION AND METHOD FOR SUPPRESSING PERCEPTION OF SMOKE OR VAPOR ODOR AND FOR SMOKING OR VAPING CESSATION” (University of Kentucky Research Foundation, priority 2023, published 2024):
Entries after “also recorded” stand apart in the source; their conditions may differ. Like-named read-outs stand apart in the source and are kept apart here.

Columns and labels:
[1] = tested on: perception of 1-pentanethiol; experiment: Split-nostril testing with 1-pentanethiol (physical vs dichorhinic mixtures); assay type: in vivo, human; conditions: for sex comparison of the effect on perceived intensity of 1-pentanethiol: males vs females, citronellal as physical mixture, pentanol as dichorhinic mixture; for perceived pleasantness of mixtures with 1-pentanethiol: isointense amounts mixed in air (N=29)
Method: In all experiments each subject was presented with odor samples in a unique random order. Subjects were instructed to take a single inhalation of each sample. Samples were separated by rest periods of at least 50 sec to minimize adaptation. Target odorants (1-pentanethiol or guaiacol) were sampled thrice by each subject prior to the initiation of an experiment. Dilutions of odorants (0.1-, 0.01-, 0.001-, and 0.0001-fold) were prepared in 10 ml of mineral oil in 250 ml brown Boston round bottles. To mimic the conditions of split-nostril testing, each dilution bottle was paired with a bottle containing 10 ml of mineral oil, with both bottles connected to the same Teflon nozzle. Control samples consisted of pairs of bottles containing 10 ml of mineral oil connected to a Teflon nozzle. Subjects simultaneously sniffed from two nozzles, either an odor dilution through one nostril and a control through the other nostril, or controls through both nostrils. Each subject (n=7-9) sniffed a unique random order of dilutions, rating intensity on a scale of 1-10. Dilutions that gave average intensities in the range of 4-5 were selected. Subjects simultaneously sniffed from two pairs of bottles, one pair per nostril. Treatment samples included no odorant controls and target odorants (1-pentanethiol or guaiacol) presented alone or mixed in air with masking odorants. Subjects experienced every sample four times, balanced so that pairings of odors were given twice per nostril, with the exception of the no odor control (10 ml of mineral oil in each bottle), which was presented twice. Subjects rated intensity on a gLMS scale (0-100) via a graphical user interface on a computer, followed by rating pleasantness on a linear scale of −10 to +10. Redjade software was used to produce unique random orders for each subject and to collect intensity and pleasantness ratings. Exclusion criteria were ratings of 0 on >25% of treatments (to exclude hyposmic subjects) and a Pearson correlation coefficient of <35% on test-retest across all treatments. To discriminate peripheral versus CNS odor interaction effects a split-nostril experiment was performed where odorants delivered simultaneously to different nostrils (dichorhinic mixture) can only affect perception via central nervous system (CNS) circuits versus odorants delivered together to the same nostril (physical mixture) where they can affect perception via both peripheral effects and central effects (FIG. 3A). Furthermore, by mixing the odorants in air there is an elimination of reduced volatilization of 1-pentanethiol as a cause of perception of reduced intensity.

perception of guaiacol [2] = experiment: Preliminary screen of odorants with guaiacol (physical mixtures in air); assay type: in vivo, human
Method: (§1) In all experiments each subject was presented with odor samples in a unique random order. Subjects were instructed to take a single inhalation of each sample. Samples were separated by rest periods of at least 50 sec to minimize adaptation. Target odorants (1-pentanethiol or guaiacol) were sampled thrice by each subject prior to the initiation of an experiment.
(§2) Dilutions of odorants (0.1-, 0.01-, 0.001-, and 0.0001-fold) were prepared in 10 ml of mineral oil in 250 ml brown Boston round bottles. To mimic the conditions of split-nostril testing, each dilution bottle was paired with a bottle containing 10 ml of mineral oil, with both bottles connected to the same Teflon nozzle. Control samples consisted of pairs of bottles containing 10 ml of mineral oil connected to a Teflon nozzle. Subjects simultaneously sniffed from two nozzles, either an odor dilution through one nostril and a control through the other nostril, or controls through both nostrils. Each subject (n=7-9) sniffed a unique random order of dilutions, rating intensity on a scale of 1-10. Dilutions that gave average intensities in the range of 4-5 were selected.
In preliminary screening only physical mixtures were tested. Air mixing was achieved by attaching pairs of 250 ml brown Boston round bottles, one containing the candidate antagonist odorant and the other the target odorant, to a single nozzle. Controls consisted of pairs of bottles, each containing 10 ml of mineral oil, connected to the same Teflon nozzle. Subjects simultaneously sniffed from two nozzles, either a physical mixture through one nostril and the control through the other nostril, or controls through both nostrils. Each sample was repeated so that each physical mixture was sniffed through the left and right nostrils. Each subject sniffed a unique random order of the samples, rating intensity on a scale of 1-10 using Google forms.
(§3) Like 1-pentanethiol, guaiacol is a key odorant in cigarette smoke and is one of the most important components of a simple mimic of cigarette smoke odor. […] A split-nostril experiment was performed to test these hypotheses and determine whether effects were peripheral or central. […] It was confirmed that effects of the physical and dichorhinic mixtures differed by comparing within-subject responses (FIG. 5B).

perception of guaiacol [3] = experiment: Split-nostril testing with guaiacol (physical vs dichorhinic mixtures); assay type: in vivo, human; conditions: for perceived pleasantness of mixtures with guaiacol: compared with guaiacol alone; for effect on perceived intensity of guaiacol: physical mixture (same nostril) vs dichorhinic mixture
Method: as §1, §2
Subjects simultaneously sniffed from two pairs of bottles, one pair per nostril. Treatment samples included no odorant controls and target odorants (1-pentanethiol or guaiacol) presented alone or mixed in air with masking odorants. Subjects experienced every sample four times, balanced so that pairings of odors were given twice per nostril, with the exception of the no odor control (10 ml of mineral oil in each bottle), which was presented twice. Subjects rated intensity on a gLMS scale (0-100) via a graphical user interface on a computer, followed by rating pleasantness on a linear scale of −10 to +10. Redjade software was used to produce unique random orders for each subject and to collect intensity and pleasantness ratings. Exclusion criteria were ratings of 0 on >25% of treatments (to exclude hyposmic subjects) and a Pearson correlation coefficient of <35% on test-retest across all treatments.
as §3

[4] = tested on: perception of 1-pentanethiol; experiment: Preliminary screening for masking of 1-pentanethiol (solution mixtures on cotton balls, intensity and pleasantness ratings); assay type: in vivo; conditions: solution mixture screen, both odorants in the same cotton ball, human subjects (n=24)
Text: In all experiments each subject was presented with odor samples in a unique random order. Subjects were instructed to take a single inhalation of each sample. Samples were separated by rest periods of at least 50 sec to minimize adaptation. Target odorants (1-pentanethiol or guaiacol) were sampled thrice by each subject prior to the initiation of an experiment. Dilutions (0.1-, 0.01-, 0.001-, and 0.0001-fold) of candidate masking odorants and the key cigarette smoke odorant 1-pentanethiol were prepared in dimethyl sulfoxide. Subjects (5 male and 7 female) sniffed 0.4 ml volumes absorbed in cotton balls from 0.8 ml brown glass vials and rated intensity on a scale of 1-10. Dilutions that gave average intensities in the range of 4-5 were selected for screening tests in which subjects rated intensity on a scale of 1-100 using a paper form. Subjects also rated whether the overall odor of each sample was pleasant or unpleasant (a forced-choice test). Seventeen (17) odorants commonly used as general masking odors or previously tested as cigarette additives designed to improve the perceived pleasantness of cigarette smoke were screened. […] While efficient for screening odorants, the mixing approach used (soaking of both odorants into the same cotton ball) fails to implicate mechanism because it may allow three potential causes for perception of reduced intensity of a target odor: CNS effects where circuit interactions lead to perception of reduced intensity, peripheral effects such as receptor antagonism, and (potentially) reduced volatilization of 1-pentanethiol. Further experiments were required to determine which of these causes explain the effect of citronellal.

[5] = listed as Methyl-2-methylbutyrate
[6] = dichorhinic mixture, odorants delivered to different nostrils
[7] = physical mixture delivered to the same nostril, mixed in air

Structure (SMILES): CCCCCS [1-pentanethiol]
- perceived pleasantness of the odorant alone ([1]; split-nostril experiment): moderately unpleasant

Structure (SMILES): CCCC(O)CCC1C(C)CCCC1(C)C (centres unmarked) [Norlimbanol, reference compound]
- interaction with guaiacol (perceived intensity) (perception of guaiacol [2]): three largest interactions
- perceived pleasantness of mixtures with guaiacol (perception of guaiacol [3]): no effect of perceived pleasantness

Structure (SMILES): CCOC(=O)C(C)CC (centres unmarked) [ethyl-2-methylbutyrate, Ethyl 2-methylbutyrate]
- interaction with guaiacol (perceived intensity) (perception of guaiacol [2]): promising effects

Structure (SMILES): CCC(C)C(=O)OC (centres unmarked) [methyl-2-methylbutyrate, methyl 2-methylbutyrate]
- interaction with guaiacol (perceived intensity) (perception of guaiacol [2]): promising effects
- interaction with guaiacol (perceived intensity) (perception of guaiacol [2]; [5]): three largest interactions
- perceived pleasantness of mixtures with guaiacol (perception of guaiacol [3]): no effect of perceived pleasantness
- effect on perceived intensity of guaiacol in a physical mixture (perception of guaiacol [3]; male participants (N=6)): significant decrease
- effect on perceived intensity of guaiacol (perception of guaiacol [3]): suppressed perception of guaiacol, but only when applied via the same nostril as a physical mixture; also recorded: suppress perception
- effect on perceived intensity of guaiacol (perception of guaiacol [3]; [5]): decreases the perceived intensity of guaiacol

Structure (SMILES): C=CC(C)(O)CCC=C(C)C (centres unmarked) [Linalool, reference compound]
- interaction with guaiacol (perceived intensity) (perception of guaiacol [2]): three largest interactions
- perceived pleasantness of mixtures with guaiacol (perception of guaiacol [3]): no effect of perceived pleasantness

Structure (SMILES): CCCCCO [pentanol]
- effect on perceived intensity of 1-pentanethiol [4]: no effect on perception of 1-pentanethiol
- effect on perceived intensity of 1-pentanethiol [1, 6]: increased the perceived intensity of 1-pentanethiol; also recorded: increases the perceived intensity of 1-pentanethiol only when delivered a dichorhinic mixture
- effect on perceived intensity of 1-pentanethiol ([1]; dichorhinic mixture, odorants delivered to different nostrils, listed as 1-pentanol): additive effect mediated centrally
- sex comparison of perceived pleasantness of mixtures with 1-pentanethiol ([1]; females (N=19) vs males (N=10)): less pleasant than did males; also recorded: more unpleasant than did males
- sex comparison of the effect on perceived intensity of 1-pentanethiol [1]: apparent in both sexes, but appeared slightly stronger in females
- effect on perceived intensity of 1-pentanethiol [1, 7]: did not result in any reduction in the perceived intensity of 1-pentanethiol
- perceived pleasantness, dichorhinic vs physical mixtures with 1-pentanethiol ([1]; split-nostril experiment (N=29)): less pleasant than physical mixtures; also recorded: more unpleasant than physical mixtures
- perceived pleasantness of mixtures with 1-pentanethiol ([1]; split-nostril experiment): did not improve perceived pleasantness; also recorded: little affected

Structure (SMILES): CC(C)=CCCC(C)CC=O (centres unmarked) [citronellal]
- effect on perceived intensity of 1-pentanethiol [4]: most effective at reducing the perceived intensity of 1-pentanethiol; also recorded: strongest effect
- effect on perceived intensity of 1-pentanethiol ([4]; listed as Citronellal): most effective masking odor
- effect on perceived intensity of 1-pentanethiol [1, 6]: did not affect the perceived intensity of 1-pentanethiol
- within-subject comparison of perceived 1-pentanethiol, physical vs dichorhinic mixtures ([1]; female participants): showed no difference
- within-subject comparison of perceived 1-pentanethiol, physical vs dichorhinic mixtures ([1]; male participants): nearly all males perceived less 1-pentanethiol in physical mixtures
- sex comparison of the effect on perceived intensity of 1-pentanethiol [1]: stronger in males than in females
- effect on perceived intensity of 1-pentanethiol [1, 7]: reduced the perceived intensity of 1-pentanethiol; also recorded: suppress perception
- effect on perceived intensity of 1-pentanethiol ([1]; physical mixture delivered to the same nostril, mixed in air, listed as Citronellal): decreases the perceived intensity of 1-pentanethiol only when delivered as a physical mixture
- perceived pleasantness of mixtures with 1-pentanethiol ([1]; split-nostril experiment): improved pleasantness; also recorded: neither pleasant nor unpleasant on average; also recorded: alleviated
